# Measured values from patent publication US20190248834A1, “ENDOMORPHIN-2, TETRAPEPTIDE DERIVATIVES THEREOF, AND USES THEREOF” (priority 2016, published 2019).
# Tests used:
# [1] = tested on: severe frontal headaches; assay: Example 47: analgesic effect on severe headaches, topical; type: in vivo, human
# From the text: A subject had severe frontal headaches occurring every 5-10 days.
# [2] = tested on: psoriatic knee pain; assay: Example 66: analgesic effect on psoriatic knee pain, topical; type: in vivo, human; details: 0.5% (w/v) in WEP442, topical
# From the text: A person with plaque psoriasis of the scalp, elbows and knees for about 10 years had pain in their knees for the past 4-5 years. The knee pain had gradually worsened. […] After hiking for several hours, the knee pain sometimes re-occurred, but it was immediately relieved by topical application of the above solution composition.
smiles,measurement,setting,value
CC(=O)N[C@@H](Cc1ccc(O)cc1)C(=O)N1CCC[C@H]1C(=O)N[C@@H](Cc1ccccc1)C(=O)N[C@@H](Cc1ccccc1)C(N)=O [N-Ac-Tyr-Pro-Phe-Phe-NH2],time to pain relief,"[1]; 1% (w/v) in WEP442, topical",3 to 4 min
same,pain relief,"[1]; 1% (w/v) in WEP442, topical at onset",completely interrupted all pain
same,duration of pain relief,[2],about 6 hours
same,pain relief,[2],relieved their knee pain
